Data: patent US20260306633A1, “A COMBINATION THERAPY FOR CANCER TREATMENT” (Purdue Research Foundation, priority 2023, published 2026)
Read-outs that look alike come from different tables or passages of the source.

System: TNBC BT-549 cells
Test: Cell survival / cell inhibition (MTT cell cytotoxicity assay) after 24 h treatment with photosensitizer and/or chemotherapeutic agent, dark or light-irradiated
Format: cell-based, human
Conditions: for cell inhibition (%), combination with cisplatin / cell inhibition (%), combination with doxorubicin / cell inhibition (%), combination with fluorouracil / cell inhibition (%), combination with methotrexate / cell inhibition (%), combination with paclitaxel: light 0.96 J cm−2; for cell inhibition (%), combination with doxorubicin: PS 100 nM + doxorubicin 500 nM; for cell inhibition (%), combination with methotrexate: PS 100 nM + methotrexate 500 nM; for cytotoxicity in the absence of light, PS alone: PS 500 nM; for viability at 0.5 µM / viability at 1 µM / viability at 0.1 µM: Homo sapiens, BT-549, 24 h; for viability at 0.5 µM: read-out: cell survival, drug only; for viability at 1 µM: high end of 100-1000 nM, read-out: cell survival, drug only (end of decrease); for viability at 0.1 µM: low end of 100-1000 nM, read-out: cell survival, drug only (start of decrease)
Method: Human mammary epithelial carcinoma cell lines purchased from the American Type Culture Collection BT-549 (ATCC HTB-122) were cultured according to ATCC protocol. BT-549 cells were grown in RPMI 1640 containing 0.023 IU/mL insulin and supplemented with 10% fetal bovine serum (FBS). Cells were grown to 80-90% confluence in 75-cm^2 culture flasks (Corning) for 4-5 days in a humidified incubator (Fisher Scientific Isotemp) with 5% CO2 at 37° C. During the incubation period, growth media was changed once with fresh pre-warmed media (pH 7.2). To harvest the cells, old growth media was aspirated out, and 3 mL 0.25% trypsin solution (Thermo Sci Hyclone) were added. The cells were incubated for 5 minutes, and the cell pellet after centrifugation was resuspended in 3 mL media, broken up gently, then 1 mL of suspended cells was transferred into a new T75 cell culture flask containing pre-warmed media (20 mL) for further culturing.
Cells were grown to confluence in a 96-well plate (9×10^3 cells/well) and co-treated for 24 hours with synthesized photosensitizers (PSs) and chemotherapeutic agents of varying concentrations ranging from 5 nM to 50 μM) in growth media from a stock solution of 10 mM in DMSO (dimethyl sulfoxide, Fisher). After 24-hour treatment, old growth media containing the PSs or compounds were aspirated out and replaced with fresh media. Plates were then positioned below a non-coherent LumaCare LC-122 650 nm light source for 1 minute at an energy fluence rate of 0.96 J/cm^2 and a power of 16 mW/cm^2 (measured using a Newport optical power meter Model 840). Unirradiated cells served as control samples. The following day, cells were washed with pre-warmed PBS, and 11MTT (3-[4,5-dimethyl-thiazol-2-yl]-2.5-diphenyltetrazolium bromide, Sigma, 0.3 mg/mL) in PBS was added to each well. Samples were allowed to incubate for additional 2 hours, after which dark blue crystals formed. DMSO was added to each well and plates were shaken at room temperature for 1 hour to dissolve the purplish-blue formazan crystals. Absorbance values at 570 nm were measured on a microplate reader (BioRad 550). Cell survival was calculated based on the absorbance of the untreated cells alone (as control) and were directly proportional to the number of viable cells in culture. Results were reported as the mean±SD of triplicate measurements.
The unmetallated PS and the indium complexes were used.
Light dose corresponds to an energy fluence rate of 0.96 J/cm^2 used.
Power of 16 mW/cm^2 used.
Cell inhibition in TNBC cells is based on the cell survival (MTT) assay of the binary therapy, blending the effect of PDT and chemotherapeutic agents. […] MePheo serves as a control compound. TNBC cells were then exposed to light after binary treatment for 24 hours.

[1] = PS 100 nM + cisplatin 25 μM, 24 h
[2] = PS 100 nM + fluorouracil 25 μM, 24 h
[3] = PS 100 nM + paclitaxel 50 nM, 24 h

C=Cc1c(C)c2cc3nc(c(CC(=O)OC)c4[nH]c(cc5nc(cc1[nH]2)C(C)=C5CC)c(C)c4C(=O)NCCCCCCNC(=O)c1ccc(C(=C)c2cc4c(cc2C)C(C)(C)CCC4(C)C)cc1)[C@@H](CCC(=O)OC)[C@@H]3C [CBX, chlorin bexarotene conjugate]
cell inhibition (%), combination with cisplatin [1]: 0%
cell inhibition (%), combination with doxorubicin (24 h): 30%
cell inhibition (%), combination with fluorouracil [2]: 6%
cell inhibition (%), combination with methotrexate (24 h): 42%
cell inhibition (%), combination with paclitaxel [3]: 48%
cytotoxicity in the absence of light, PS alone (dark): No cytotoxicity

COc1cccc2c1C(=O)c1c(O)c3c(c(O)c1C2=O)C[C@@](O)(C(=O)CO)C[C@@H]3O[C@H]1C[C@H](N)[C@H](O)[C@H](C)O1 [doxorubicin, reference compound]
viability at 0.5 µM (doxorubicin 500 nM, dark): 81%
viability at 1 µM (doxorubicin, dark): 70%
viability at 0.1 µM (doxorubicin, dark): 100%
viability at 1 µM (doxorubicin, light): 72%
viability at 0.1 µM (doxorubicin, light): 95%
average decrease in cell survival upon light irradiation compared to unirradiated cells, drug only (drug alone, light vs dark): 2-5%

CN(Cc1cnc2nc(N)nc(N)c2n1)c1ccc(C(=O)N[C@@H](CCC(=O)O)C(=O)O)cc1 [methotrexate, reference compound]
viability at 0.5 µM (methotrexate 500 nM, dark): 78%
viability at 1 µM (methotrexate, dark): 66%
viability at 0.1 µM (methotrexate, dark): 87%
viability at 1 µM (methotrexate, light): 66%
viability at 0.1 µM (methotrexate, light): 93%
average increase in cell survival upon light irradiation compared to unirradiated cells, drug only (drug alone, light vs dark): 6%

C=Cc1c(C)c2cc3nc(c(CC(=O)OC)c4[nH]c(cc5nc(cc1[nH]2)C(C)=C5CC)c(C)c4C(=O)NCCCCCCNC(=O)CCCC[C@@H]1CCSS1)[C@@H](CCC(=O)OC)[C@@H]3C [CLA, chlorin lipoic acid conjugate]
cell inhibition (%), combination with cisplatin [1]: 65%
effect of added cisplatin compared to cisplatin-treated cell viability (PS 100 nM + cisplatin 25 μM, light): reduced cell survival
cell survival, co-treatment with cisplatin upon light (PS 100 nM + cisplatin 25 μM, light, 1440 min): 35%
cell inhibition (%), combination with doxorubicin (24 h): 33%
cell survival, co-treatment with fluorouracil in the dark (PS 100 nM + fluorouracil 25 μM, 24 h, dark): 84%
cell inhibition (%), combination with fluorouracil [2]: 35%
cell inhibition (%), combination with methotrexate (24 h): 43%
cell survival, co-treatment with paclitaxel in the dark (PS 100 nM + paclitaxel 50 nM, 24 h, dark): 59%
cell inhibition (%), combination with paclitaxel [3]: 45%
cell survival, PS alone (PS 100 nM, light 0.96 J/cm^2, 1440 min): 90%
cytotoxicity in the absence of light, PS alone (dark): No cytotoxicity
combination therapy vs monotherapy (cisplatin) (PS + cisplatin, light): better photodynamic effect when co-treated with cisplatin than PS-treatment alone
